Data on twelve molecules can be found in ChEMBL document CHEMBL1201862, “PubChem BioAssay data set” (2004).

Test in all cases: growth of human tumour cells (NCI), 48 h
In assay [1] the test system is HCC 2998.
For assay [2], the system named is HCT-116.
Assay [3] relates to HCT-15.
For assay [4], the system named is IGROV-1.
For assay [5], the system named is MOLT-4.
Assay [6] relates to OVCAR-4.
Assay [7] relates to SF-295.
The test system of assay [8] is SF-539.
In assay [9] the test system is SK-MEL-2.
Assay [10] concerns SNB-75.
The subject of assay [11] is SR.
Assay [12] deals with U-251.
For assay [13], the system named is UACC-257.
Assay [14] relates to UACC-62.
Assay [15] relates to NCI-H226.
For assay [16], the system named is OVCAR-3.
Assay [17] concerns OVCAR-5.
Assay [18] deals with RXF 393.
In assay [19] the test system is TK-10.

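The compound was tested at five concentrations on cells cultured in 96-well plates, with a 48-hour exposure period. At the GI50, growth is halved.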 Active and inactive are the calls of the source. Rule as the data show it: active = GI50 up to about 1.1 µM and inactive = higher.

As for `C/C(=N\NS(=O)(=O)c1ccc(C)cc1)c1cc2ccccc2n1C`, the GI50 in [1] is > 100 µM (inactive); in assay [2], > 100 µM (inactive); in [3] it was > 100 µM; in assay [4], > 100 µM (inactive); in [5] it was > 100 µM (inactive); in assay [6], > 100 µM (inactive). In addition, the GI50 in [7] was > 100 µM (inactive); in assay [8] it was > 100 µM (inactive); in assay [9], > 100 µM (inactive); in assay [10] it was 59.2 µM (inactive); in assay [11], > 100 µM (inactive); in [12], 63.8 µM (inactive). Also, the values for the GI50 in assay [13] and in assay [14] were > 100 µM (inactive) and 76.2 µM (inactive), respectively.

`NC(=S)N1N=C2CCCCCC[C@@H]2[C@H]1c1ccccc1`: the GI50 in assay [1] was 79.4 µM (inactive); in assay [2] it was 43.1 µM (inactive); in assay [3], 28.4 µM; in [4], 63.2 µM (inactive); in [5] it was 31.8 µM (inactive); in assay [15], 18.6 µM (inactive). Moreover, the GI50 in [16] is 39.3 µM (inactive); in assay [17], > 100 µM (inactive); in assay [18], 95.9 µM (inactive); in [7], 35.3 µM (inactive); in assay [8], > 100 µM (inactive); in assay [9], 64.6 µM (inactive). In addition, the GI50 in assay [10] was 75.2 µM (inactive); in assay [19], 63 µM (inactive); in assay [12], 46 µM (inactive); in assay [13] it was 36.6 µM (inactive); in [14], 44.1 µM (inactive).

As to `N#CC1CCCCCCCCCCC(=O)N(CCCl)C1=O` (stereo not drawn), the GI50 in assay [1], in [4], in [5], in [16], in assay [6] and in assay [17] was > 100 µM (inactive) throughout. The GI50 in assay [18], in assay [7], in [8], in [9], in [10] and in [19] was > 100 µM (inactive) each time. Further, the GI50 in assay [12], in assay [13] and in assay [14] was > 100 µM (inactive) each time.

On to `Cc1cc(Cl)ccc1NC(=O)C1C(=O)N(c2ccc(Cl)cc2C)C(=O)/C1=N\NC(N)=S` (stereo not drawn), for which the GI50 in assay [1] is 20.8 µM (inactive); in assay [2] it was 21.9 µM (inactive); in assay [3], 17.1 µM; in [5], 19.2 µM (inactive); in assay [16], 32.8 µM (inactive); in assay [6], 18.5 µM (inactive). In addition, the GI50 in assay [17] is 24.3 µM (inactive); in [18], 16 µM (inactive); in assay [7], 29.9 µM (inactive); in [8], 26.1 µM (inactive); in assay [19], 47.9 µM (inactive); in [12] it was 19.6 µM (inactive). Further, the results for the GI50 in [13] and in assay [14] were 59 µM (inactive) and 31.6 µM (inactive), respectively.

As for `CC1C(c2ccccc2)N(C)C(c2ccccc2)C(C)C1(O)c1ccccc1` (stereo not drawn), the GI50 is > 100 µM (inactive) in [1]; 26.4 µM (inactive) in assay [2]; 84.1 µM in [3]; > 100 µM (inactive) in assay [4]; > 100 µM (inactive) in assay [5]; 44.2 µM (inactive) in [15]. For the same molecule, the GI50 in assay [16] is 51.4 µM (inactive); in assay [6], > 100 µM (inactive); in assay [17] it was > 100 µM (inactive); in [18] it was > 100 µM (inactive); in assay [7], 46.7 µM (inactive); in [8] it was > 100 µM (inactive). Besides, the GI50 in assay [9] is 79.6 µM (inactive); in assay [10], 73.3 µM (inactive); in assay [19], > 100 µM (inactive); in [12] it was > 100 µM (inactive); in assay [13], > 100 µM (inactive); in assay [14], > 100 µM (inactive).

Take `CCc1cccc(C)c1NC(C)=O`: the GI50 in [1] was > 100 µM (inactive); in [2], > 100 µM (inactive); in assay [3] it was > 100 µM; in assay [4] it was > 100 µM (inactive); in assay [5], > 100 µM (inactive); in [15] it was > 100 µM (inactive). Also, the GI50 in assay [16], in assay [6], in [17], in assay [18], in [7] and in [8] was > 100 µM (inactive) in each case. Further, the GI50 in assay [9], in [10], in [19], in assay [12], in assay [13] and in [14] was > 100 µM (inactive) in each case.

On to `COc1cc2c(cc1OCc1ccccc1)CNCC2`, for which the GI50 in assay [1] is > 100 µM (inactive); in assay [2], > 100 µM (inactive); in assay [3], > 100 µM; in assay [4] it was > 100 µM (inactive); in [5], > 100 µM (inactive); in assay [15] it was > 100 µM (inactive). The GI50 in [16], in [6], in assay [17], in assay [18], in [7] and in assay [8] was > 100 µM (inactive) throughout. Moreover, the GI50 in assay [9], in assay [10], in assay [19], in [12], in [13] and in assay [14] was > 100 µM (inactive) each time.

On to `CN(C)CCC(O)(c1ccccc1)C(O)(CCN(C)C)c1ccccc1` (stereo not drawn), for which the GI50 was > 100 µM (inactive) in assay [1]; > 100 µM in assay [3]; > 100 µM (inactive) in [4]; > 100 µM (inactive) in assay [5]; > 100 µM (inactive) in assay [16]; > 100 µM (inactive) in assay [6]. For the same molecule, the GI50 was > 100 µM (inactive) in assay [17]; 53.7 µM (inactive) in [7]; > 100 µM (inactive) in assay [9]; 33.1 µM (inactive) in assay [10]; > 100 µM (inactive) in assay [19]; > 100 µM (inactive) in assay [12]. In addition, the values for the GI50 in assay [13] and in [14] were 22.3 µM (inactive) and > 100 µM (inactive), respectively.

`CCCCCCCCCCCCCCCCOCC(CP(=O)([O-])OCC[n+]1ccccc1)OC` (stereo not drawn): the GI50 in assay [1] is 2.45 µM (inactive); in [2], 9.66 µM (inactive); in assay [4] it was 3.84 µM (inactive); in assay [5], 4.65 µM (inactive); in [15], 4.02 µM (inactive); in assay [16], 12.6 µM (inactive). The GI50 is 11.4 µM (inactive) in assay [6]; 4.38 µM (inactive) in assay [7]; 14.6 µM (inactive) in [8]; 16.5 µM (inactive) in [9]; 8.45 µM (inactive) in assay [10]; 3.5 µM (inactive) in [11]. Besides, the GI50 in assay [19] is 2.9 µM (inactive); in assay [13], 14.5 µM (inactive); in assay [14] it was 11.3 µM (inactive).

With `C/C(CC(=O)Nc1ccc(C)cc1C)=N/N=C(N)N`, the GI50 in assay [1], in assay [2], in [4], in assay [5], in assay [15] and in assay [16] was > 100 µM (inactive) throughout. For the same molecule, the GI50 in assay [17], in [18], in assay [7], in assay [8], in [9] and in [10] was > 100 µM (inactive) in each case. Further, the GI50 in [19], in assay [12], in assay [13] and in assay [14] was > 100 µM (inactive) in each case.

On to `CC(=O)NC1=C(N)C(=O)c2ccccc2C1=O`, for which the GI50 was > 100 µM (inactive) in assay [1]; 17.7 µM (inactive) in assay [2]; 47.6 µM in assay [3]; > 100 µM (inactive) in [4]; > 100 µM (inactive) in [5]; 20.2 µM (inactive) in [16]. In addition, the GI50 in assay [17] is > 100 µM (inactive); in [18], 46.9 µM (inactive); in assay [7], > 100 µM (inactive); in assay [8], > 100 µM (inactive); in assay [9], 90.6 µM (inactive); in [10], > 100 µM (inactive). The GI50 is > 100 µM (inactive) in [19], 56.5 µM (inactive) in [12], > 100 µM (inactive) in assay [13] and 49.8 µM (inactive) in [14].

As to `COC(=O)c1nc(-c2ccc(Cl)c(Cl)c2)nc2ccccc12`, the GI50 in assay [1] is > 100 µM (inactive); in [2], 13.1 µM (inactive); in [3], > 100 µM; in [4] it was 48.9 µM (inactive); in [5], > 100 µM (inactive); in [15], 13.7 µM (inactive). The GI50 in assay [16] is 14.5 µM (inactive); in assay [6], 7.83 µM (inactive); in assay [17] it was > 100 µM (inactive); in assay [18], 13.6 µM (inactive); in [7], 12 µM (inactive); in [8] it was 24.2 µM (inactive). Besides, the GI50 was 71.8 µM (inactive) in assay [9]; 5.04 µM (inactive) in assay [10]; 34.6 µM (inactive) in assay [19]; 21.2 µM (inactive) in assay [12]; > 29.6 µM (inactive) in assay [13]; > 27.7 µM (inactive) in assay [14].
